We go through 14 compounds from ChEMBL document CHEMBL1201862, “PubChem BioAssay data set” (2004).

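Cultured in 96-well plates, cells were exposed to test compound for 48 hours across five concentrations. GI50 is the concentration that inhibits growth by half.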 Active and inactive are the calls of the source. Rule as the data show it: active = GI50 up to about 1.1 µM and inactive = higher.

Some test systems named below: DMS-114; DMS-273; KM-20L2; LXFL 529; M19-MEL; SNB-78; XF498; HOP-18; RXF 631.
What all share (experiment): DTP human tumour cell line panel, 48 h

By GI50 is commonly meant the concentration at which growth is held to half of that of the control. `Cn1cc(C(=O)c2ccccc2)ccc1=O`: the GI50 in the experiment with DMS-114, in the experiment with DMS-273, in the experiment with KM-20L2, in the experiment with LXFL 529, in the experiment on M19-MEL and in the experiment on SNB-78 was > 100 µM (inactive) in each case. In the experiment with XF498, the GI50 was > 100 µM (inactive).
Regarding `COc1ccc(Nc2nc3ccccc3nc2-c2cccs2)cc1`, the GI50 is 92.9 µM (inactive) in the experiment on DMS-114; > 100 µM (inactive) in the experiment on DMS-273; > 100 µM (inactive) in the experiment on HOP-18; 60 µM (inactive) with KM-20L2; 54.5 µM (inactive) in the experiment with LXFL 529; 39.5 µM (inactive) in the experiment with SNB-78. Also, in the experiment on XF498, the GI50 is 78.2 µM (inactive).
As for `C1CCC(OCc2nnn3c2CCC3)OC1` (stereo not given), the GI50 in the experiment with HOP-18 is < 0.01 µM (active); in the experiment on KM-20L2, > 100 µM (inactive); with LXFL 529, > 100 µM (inactive); with M19-MEL, > 100 µM (inactive); with SNB-78 it was > 100 µM (inactive); in the experiment on XF498 it was > 100 µM (inactive).
On to `Nc1c(/N=N/c2ccc(-c3ccc(/N=N/c4c(O)ccc5cc(S(=O)(=O)O)cc(S(=O)(=O)O)c45)cc3)cc2)c(S(=O)(=O)O)cc2cc(S(=O)(=O)O)c(/N=N/c3ccccc3)c(O)c12`, for which the GI50 in the experiment on DMS-114 is > 100 µM (inactive); in the experiment with DMS-273, > 86.9 µM (inactive); in the experiment on HOP-18 it was > 100 µM (inactive); in the experiment on M19-MEL, > 100 µM (inactive); with SNB-78, > 84.3 µM (inactive); in the experiment on XF498 it was > 67.6 µM (inactive).
For the compound `N/C(S)=N/N=C/c1ccc(O)cn1`, the GI50 in the experiment on DMS-273 was 3.75 µM (inactive); with HOP-18, 27.1 µM (inactive); in the experiment with LXFL 529, 19.7 µM (inactive); in the experiment on M19-MEL it was 11.1 µM (inactive); in the experiment on RXF 631, 31.2 µM (inactive); in the experiment on XF498, 12.4 µM (inactive).
As for `OCc1ccccc1C1CSCSC1`, the GI50 in the experiment with DMS-114, in the experiment on DMS-273, with LXFL 529, in the experiment on M19-MEL, in the experiment with SNB-78 and with XF498 was > 100 µM (inactive) each time.
In the case of `CCCCCCCCCC/C=C/C=O`, the GI50 in the experiment with DMS-114, in the experiment with DMS-273, with HOP-18, in the experiment on KM-20L2, with LXFL 529 and in the experiment on M19-MEL was > 100 µM (inactive) in each case. In addition, the GI50 in the experiment on SNB-78 and in the experiment on XF498 was > 100 µM (inactive) each time.
For `CC1=C2[C@@H](c3ccccc3)C3C=CC2(C=C3C(F)(F)F)N(C(=O)NC2CCCCC2)C1=O` (stereo not given in full), the GI50 in the experiment on DMS-114 is 35.1 µM (inactive); with DMS-273, 80 µM (inactive); in the experiment on HOP-18, > 100 µM (inactive); in the experiment on KM-20L2 it was 93.1 µM (inactive); in the experiment on LXFL 529 it was 36.1 µM (inactive); with M19-MEL, 54.6 µM (inactive). In addition, the GI50 in the experiment with RXF 631 is 39.7 µM (inactive); in the experiment with SNB-78 it was 36.1 µM (inactive); in the experiment with XF498, > 100 µM (inactive).
As to `COc1cc2oc(-c3ccc(O)cc3)cc(=O)c2c(O)c1C1OC(CO)C(O)C(O)C1O` (stereo not given), the GI50 was > 100 µM (inactive) with DMS-114; 62.4 µM (inactive) in the experiment with DMS-273; > 100 µM (inactive) in the experiment on HOP-18; > 100 µM (inactive) in the experiment on KM-20L2; > 100 µM (inactive) with LXFL 529; > 100 µM (inactive) with M19-MEL. Also, the GI50 in the experiment on SNB-78 and in the experiment with XF498 was > 100 µM (inactive) throughout.
For `C/C=C/c1cc2c(c(=O)o1)C(=O)[C@@H](O)[C@H](C)O2`, the GI50 in the experiment with DMS-114 was 6.75 µM (inactive); in the experiment on DMS-273, 16 µM (inactive); in the experiment on HOP-18, 17.5 µM (inactive); in the experiment on KM-20L2, 16.1 µM (inactive); with M19-MEL, 13.4 µM (inactive); in the experiment on SNB-78, 18.8 µM (inactive).
With `CC1=C(C(=O)Nc2cccc(Cl)c2)C(c2ccc([N+](=O)[O-])cc2)C(C(=O)Nc2cccc(Cl)c2)=C(C)N1`, the GI50 with DMS-114 is 21.2 µM (inactive); in the experiment with HOP-18, 16.5 µM (inactive); with KM-20L2, 20.2 µM (inactive); with LXFL 529, 23.5 µM (inactive); with RXF 631 it was 19.8 µM (inactive); in the experiment with SNB-78, 36.1 µM (inactive).
Consider `CCOC(=O)C1(Cc2ccc3ccccc3c2)CCCCC(=O)N1` (stereo not given), for which the GI50 was 18.6 µM (inactive) in the experiment with DMS-114; 13.5 µM (inactive) in the experiment with DMS-273; > 100 µM (inactive) in the experiment on HOP-18; 30.5 µM (inactive) in the experiment on KM-20L2; 38 µM (inactive) with LXFL 529; 48.6 µM (inactive) in the experiment on M19-MEL. The values for the GI50 in the experiment with SNB-78 and in the experiment with XF498 were 52.7 µM (inactive) and 30.4 µM (inactive), respectively.
For the compound `O=C(/C(=C/c1ccc(O)cc1)c1ccccc1)c1ccccc1`, the GI50 in the experiment on DMS-114 is 11.5 µM (inactive); in the experiment with HOP-18 it was 18.8 µM (inactive); in the experiment on LXFL 529, 16.4 µM (inactive); in the experiment on M19-MEL it was 18.4 µM (inactive); in the experiment on RXF 631, 15.3 µM (inactive); in the experiment with SNB-78, 24 µM (inactive).
Turning to `C=CC[N+](CCO)(CCO)CCCCCCCCCCCCCCCCCC`, the GI50 in the experiment with DMS-114 is 3.96 µM (inactive); with DMS-273 it was 2.26 µM (inactive); with HOP-18, 8.34 µM (inactive); in the experiment with KM-20L2, 3.66 µM (inactive); in the experiment on M19-MEL, 3.34 µM (inactive); in the experiment with SNB-78 it was 3.12 µM (inactive).
